For data set [1], the system named is P. yoelii. The data set is described as follows: ALA-induced fluorescence within erythrocytes parasitized by P. yoelii, mice given ALA. The note with it: ALA injected into infected mice.
The conditions of data set [2]: following intravenous injection; occasionally more than two months; cited from earlier work.
The conditions of data set [3]: very large doses; cited from earlier work.

On to `NCC(=O)CCC(=O)O` [5-aminolevulinic acid (ALA)], for which, in data set [1], the “PpIX accumulation in non-infected erythrocytes and leukocytes” value is listed as “no such accumulation of protoporphyrin”; the “PpIX accumulation in plasmodia within erythrocytes” value was “accumulation of fluorescing and photosensitizing concentrations of protoporphyrin within metabolically active parasites”.

As for `CC1=C(CCC(=O)O)c2cc3[nH]c(cc4nc(cc5[nH]c(cc1n2)c(C)c5C(C)O)C(C)=C4C(C)O)c(C)c3CCC(=O)O` (stereo not shown) [HpIX, Hematoporphyrin IX, reference compound], the “persistence of photosensitizing amount of porphyrin in the skin” value in data set [2] is on record as “at least two weeks”. The “effect on motor nerve conduction velocity” value in data set [3] is “transient decrease in motor nerve conduction velocity”.
